# Measured values from BindingDB's records for doi:10.1021/jm00128a028 (Roche Research Center, 1989).
# Biological target: Thromboxane-A synthase (Rattus norvegicus) (UniProt P49430)
# Experiment: Inhibitory activity to inhibit Inophore-induced arachidonic acid metabolism (inhibition of TXB2 formation) in rat
# Chain of Thromboxane-A synthase (Rattus norvegicus) (P49430 whole entry, looked up): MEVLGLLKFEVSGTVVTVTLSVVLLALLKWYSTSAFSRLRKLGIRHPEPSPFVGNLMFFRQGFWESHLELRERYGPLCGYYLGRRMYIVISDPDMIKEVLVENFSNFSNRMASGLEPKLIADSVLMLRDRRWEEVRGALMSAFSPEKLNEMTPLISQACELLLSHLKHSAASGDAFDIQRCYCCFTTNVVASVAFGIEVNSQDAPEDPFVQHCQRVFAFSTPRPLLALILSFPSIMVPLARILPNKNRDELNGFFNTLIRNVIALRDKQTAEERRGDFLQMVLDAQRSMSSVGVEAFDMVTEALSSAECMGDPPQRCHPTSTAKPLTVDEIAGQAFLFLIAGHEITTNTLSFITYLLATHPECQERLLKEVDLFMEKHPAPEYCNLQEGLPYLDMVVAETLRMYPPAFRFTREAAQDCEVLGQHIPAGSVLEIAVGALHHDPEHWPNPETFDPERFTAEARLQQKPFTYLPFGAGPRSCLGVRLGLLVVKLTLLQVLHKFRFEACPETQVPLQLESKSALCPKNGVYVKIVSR
row,IC50 [µM],Compound
1,6,CCCc1c(OCCCCCOc2cc3c(cc2C(C)=O)CCC(C(=O)O)O3)ccc(C(C)=O)c1O (stereo not drawn) [Ro-23-3544]
2,0.1,COc1ccc2c(c1)c(CC(=O)O)c(C)n2C(=O)c1ccc(Cl)cc1 [indometacin]
3,2,CC(C)c1ccc2c(c1)c(SC(C)(C)C)c(CC(C)(C)C(=O)O)n2Cc1ccc(Cl)cc1
